Measured values published in Sander's compilation of Henry's law constants (doi:10.1016/s1387-3806(02)00927-2).

Assay: Henry solubility constant Hcp at 298.15 K (mol/(m3 Pa))
Settings: reference: Karl et al. (2003)

Row | Compound | Henry solubility constant Hcp
1 | CC/C=C/CCOC(C)=O [(E)-3-hexenyl ethanoate] | 0.033
2 | CC/C=C\CCOC(C)=O [(Z)-3-hexenyl ethanoate] | 0.031

Further lines, results first:

Row | Henry solubility constant Hcp | Compound
3 | 0.17 | COc1nccnc1CC(C)C [2-isobutyl-3-methoxypyrazine]
4 | 4.9 | CCc1cccc(O)c1 [1-hydroxy-3-ethylbenzene]
5 | 0.015 | CCCCCCOC(C)=O [hexyl ethanoate]
6 | 0.14 | CCC/C=C/C=O [(E)-2-hexenal]

Assay: Henry solubility constant Hcp at 291 K (mol/(m3 Pa))
Settings: reference: Karl et al. (2003)

Row | Compound | Henry solubility constant Hcp at 291 K
7 | C=CC(=C)C [2-methyl-1,3-butadiene] | 0.00029

Assay: Henry solubility constant Hcp at 295 K (mol/(m3 Pa))
Settings: reference: Karl et al. (2003)

Row | Compound | Henry solubility constant Hcp at 295 K
8 | Cc1cccc(C)c1 [1,3-dimethylbenzene] | 0.0013
9 | Cc1cc(C)cc(C)c1 [1,3,5-trimethylbenzene] | 0.002
10 | CC1=CC=C(C(C)C)CC1 [1-methyl-4-(1-methylethyl)-1,3-cyclohexadiene] | 0.00045
11 | CCCc1ccccc1 [propylbenzene] | 0.0015
12 | c1ccccc1 [benzene] | 0.0018
13 | Cc1ccccc1 [methylbenzene] | 0.0014
